Experimental data as given in patent US20200069629A1, “PHEROMONE COMPOSITIONS AND USES THEREOF” (CEVA SANTE ANIMALE, priority 2015, published 2020).

Experiment: Stability test of Formula A, contents by gas chromatography
Type: physicochemical
Conditions: in Formula A; for Content T3 months (25/60) / Content T3 months (40/75): 3 months; for Content T3 months (25/60) / Content T7 months (25/60): 25° C. and 60% RH; for Content T3 months (40/75): 40° C. and 75% RH; for Content T7 months (25/60): 7 months; for Content T0 month: white glass flask
Procedure: Detection and measures of the valeric acid, ethyl lactate and linoleic acid were made by using Gas chromatography (GC). Approximately 490 mg of linoleic acid, 53 mg of valeric acid and 78 mg of ethyl lactate accurately weighed are introduced into a 50 ml volumetric flask. This is completed to volume with ethyl acetate. […] A dilution 1/20 is made and completed to volume with ethyl acetate and the solution is stirred to homogenize. Approximately 2.5 g of Formula tested is introduced into a 20 ml volumetric flask. This is completed to volume with ethyl acetate. […] The solution is limpid. Gas chromatography equipped with a Capillary Column HP-FFAP 25 m×320 μm and a FID detector at 250° C. 1 μl of the solution is injected in the inlet (250° C.) and eluted through the column with Helium at constant flow (3 ml/min). Valeric acid (≈5.2 min), linoleic acid (≈13.5 min) and ethyl lactate (≈2.7 min) are quantified and contents thereof (% w/w) are given by the ratio of the areas of the peak corresponding to valeric acid, linoleic acid or ethyl lactate in the chromatogram obtained with the sample preparation and the standard solution.

SMILES: CCCCC(=O)O [Valeric acid]
- Content T3 months (25/60): 0.039 % w/w
- Content T3 months (40/75): 0.038 % w/w
- Content T7 months (25/60): 0.039 % w/w
- Content T0 month: 0.0425 % w/w

SMILES: CCCCC/C=C\C/C=C\CCCCCCCC(=O)O [Linoleic acid]
- Content T3 months (25/60): 0.386 % w/w
- Content T3 months (40/75): 0.364 % w/w
- Content T7 months (25/60): 0.398 % w/w
- Content T0 month: 0.395 % w/w

SMILES: CCOC(=O)C(C)O (stereo not drawn) [Ethyl lactate]
- Content T3 months (25/60): 0.060 % w/w
- Content T3 months (40/75): 0.059 % w/w
- Content T7 months (25/60): 0.059 % w/w
- Content T0 month: 0.0625 % w/w
